From patent US8802678B2, “Carbonylated (aza) cyclohexanes as dopamine D3 receptor ligands” (Bioprojet, priority 2006, dated 2014)

`N#CCC(=O)N[C@H]1CC[C@H](CCN2CCN(c3cccc4ncccc34)CC2)CC1` [Example 239, 2-Cyano-N-{4-[2-(4-quinolin-5-ylpiperazin-1-yl)ethyl]cyclohexyl}acetamide] gave a melting point of 220 °C. Molecule `NC(=O)CCC(=O)N[C@H]1CC[C@@H](CCN2CCN(c3cccc(F)c3)CC2)CC1` [Example 398, N-(4-{2-[4-(3-Fluorophenyl)-piperazin-1-yl]ethyl}cyclohexyl)-succinamide] has a melting point of 169 °C. Molecule `CC(=O)CN1CCC(CCN2CCN(c3cccc(Oc4ccccc4)c3)CC2)CC1.Cl.Cl` has a melting point of 241 °C. In the case of `N#CCC(=O)N[C@H]1CC[C@H](CCN2CCN(c3ccc(F)c(Cl)c3)CC2)CC1` [Example 594, N-(4-{2-[4-(3-Chloro-4-fluorophenyl)piperazin-1-yl]ethyl}cyclohexyl)-2-cyanoacetamide], the melting point is reported as 176 °C. `N#CCC(=O)N[C@H]1CC[C@H](CCN2CCN(c3ccc(F)c(C#N)c3F)CC2)CC1` [Example 687, 2-Cyano-N-(4-{2-[4-(3-cyano-2,4-difluorophenyl)piperazin-1-yl]ethyl}cyclohexyl)acetamide] showed a melting point of 210 °C. `CC(=O)CN1CCC(CCN2CCN(c3cccc4c3CCCC4)CC2)CC1.Cl.Cl` showed a melting point of 320 °C. Molecule `N#CCCCC(=O)N[C@H]1CC[C@H](CCN2CCN(c3csc4cc(C(F)(F)F)ccc34)CC2)CC1` [Example 253, 4-Cyano-N-(4-{2-[4-(6-trifluoromethylbenzo[b]thiophen-3-yl)piperazin-1-yl]ethyl}cyclohexyl)butanamide] has a melting point of 169 °C. In the case of `Cc1cccc(N2CCN(CC[C@H]3CC[C@H](NC(=O)C4=CCCC4)CC3)CC2)c1` [Example 380, Cyclopent-1-enecarboxylic acid {4-[2-(4-m-tolylpiperazin-1-yl)ethyl]cyclohexyl} amide], the melting point is reported as 188 °C. `CCOc1cccc(N2CCN(CC[C@H]3CC[C@H](NC(=O)CCCC#N)CC3)CC2)c1` [Example 535, 4-Cyano-N-(4-{2-[4-(3-ethoxyphenyl)piperazin-1-yl]ethyl}cyclohexyl)butanamide] gave a melting point of 121 °C. For `CC(=O)CN1CCC(CCN2CCN(c3cc(Cl)c(Cl)cc3Cl)CC2)CC1.Cl.Cl`, the melting point was 261 °C. Molecule `Cl.Cl.O=C(N[C@H]1CC[C@H](CCN2CCN(c3ccc(F)cc3F)CC2)CC1)[C@@H]1CCCN1` (stereo in doubt) has a melting point of 260 °C. `COc1cccc(N2CCN(CC[C@H]3CC[C@H](NC(=O)CCCC#N)CC3)CC2)c1` [Example 416, 4-Cyano-N-(4-{2-[4-(3-methoxyphenyl)piperazin-1-yl]ethyl}cyclohexyl)butanamide] gave a melting point of 145 °C. `O=C(N[C@H]1CC[C@H](CCN2CCN(c3cccc(C(F)(F)F)c3F)CC2)CC1)[C@@H]1CCCN1` [Example 501, Pyrrolidine-2-carboxylic acid (4-{2-[4-(2-fluoro-3-trifluoro-methylphenyl)piperazin-1-yl]ethyl}cyclohexyl) amide] showed a melting point of 140 °C. In the case of `O=C(N[C@H]1CC[C@H](CCN2CCN(c3cccc(-c4ncco4)c3)CC2)CC1)C1=COCC1` [Example 532, 4,5-Dihydrofuran-3-carboxylic acid(4-{2-[4-(3-oxazol-2-ylphenyl)piperazin-1-yl]ethyl}cyclohexyl) amide], the melting point is reported as 202 °C. `N#C[C@@H]1CC1C(=O)N[C@H]1CC[C@H](CCN2CCN(c3cccc(C(F)(F)F)c3)CC2)CC1` (stereo in doubt) [Example 324, 2-Cyano-cyclopropanecarboxylic acid (4-{2-[4-(3-trifluoromethylphenyl)piperazin-1-yl]ethyl}cyclohexyl) amide] showed a melting point of 159 °C. With `COc1c(Cl)cccc1N1CCN(CC[C@H]2CC[C@H](NC(=O)CC#N)CC2)CC1` [Example 215, N-(4-{2-[4-(3-Chloro-2-methoxyphenyl)piperazin-1-yl]ethyl}cyclohexyl)-2-cyanoacetamide] the melting point was 122 °C.
